# Source: patent publication US20220133894A1, “BISPHOSPHONATE-LINKED COMPOUNDS” (OREGON HEALTH & SCIENCE UNIVERSITY, priority 2019, published 2022)
# What was measured:
# MEK1/2 and ERK1/2 = assay: Western blot of MEK1/2 and ERK1/2 phosphorylation in RANKL treated osteoclast cells; format: cell-based, mouse; conditions: 10 μM KBU2046, RANKL treated RAW 267.4 cells
# PC3-M cells = assay: PCa subcutaneous implantation, tumor growth; format: in vivo; conditions: oral 80 mg KBU2046/kg, weekly intraperitoneal docetaxel 20 mg/kg, KBU2046 added to control or docetaxel treated mice
# Description: FIG. 1A depicts the effect of chemotherapy on the growth of androgen independent PC3-M PCa cells in vitro. Data are the mean±SEM (N=3 replicates) of cell viability in a 3 day growth assay in the presence of 10 μM KBU2046 or vehicle (control) treated with docetaxel or cabazitaxel. FIG. 1B depicts the effect of chemotherapy on the growth of androgen independent PCa cells in vivo. Mice received subcutaneous implants of PC3-M cells, were monitored until tumors were detectable (250 mm^3), and then treated daily with oral 80 mg KBU2046/kg (46) or vehicle (CO) and with weekly intraperitoneal docetaxel (doc) at 0 or 20 mg/kg, beginning on day 1, and tumor size measured. Data are mean±SEM, with N=20 mice per cohort.
# PCa subcutaneous implantation: 2.5×10^5 PC3-M cells in sterile PBS were implanted into the right flank of 6-7 week old male athymic nude mice (Charles River) and tumor growth measurements were performed twice a week as previously described by us (Gordon et al., Chemotherapy-induced monoamine oxidase expression in prostate carcinoma functions as a cytoprotective resistance enzyme and associates with clinical outcomes. PLoS One 9, e104271 (2014)). […] Tumor measurements were obtained in a blinded fashion, and tumor volumes were calculated with the following formula: length×(width)^2×0.5.
# PC3-luc cells = assay: PCa intracardiac injection model, bone destruction by CT and survival; format: in vivo, mice; conditions: oral 150 mg KBU2046/kg daily; intraperitoneal ZA 100 μg/kg weekly; CT
# RAW 267.4 cells = assay: Osteo Assay pit formation, osteoclast-mediated bone degradation; format: cell-based, mouse
# Description: FIG. 4 represents the KBU2046 inhibition of osteoclast function. FIG. 4A compares effects on Raf1 activation. RAW 267.4 cells were treated with RANKL for 4 days, treated with 10 μM KBU2046 for the indicated time periods, and Western blot for the denoted proteins performed. (B) Effects on cell morphology. RAW 267.4 cells were treated with RANKL and with KBU2046 for 4 days, or not, and denoted, and stained for actin (green) and DAPI (blue); white arrow denotes an actin ring, yellow arrow a resorptive cavity. Representative immunofluorescent images are depicted. (C) Tartrate resistant acid phosphatase (TRAP) expression. […] RAW 267.4 cells were plated onto Osteo Assay plates, treated with RANKL for 6 days and with KBU2046 (or vehicle for controls) as indicated and bone surface area quantified. Data are the mean±SEM (N=3 replicates) of bone surface area, expressed as the percentage of control cells; * denotes P<0.05 compared to control.
# To determine whether KBU2046 inhibits osteoclast-mediated bone degradation, we used Corning Osteo Assay Surface plates, which are coated with calcium-phosphate-based bone mineral. This platform supports osteoclast growth, allowing for the quantitative measurement of bone degradation, and has previously been used to measure bisphosphonate-mediated inhibition of bone degradation (40). […]
compound,measurement,setting,value
"O=C1c2ccccc2OCC1c1ccc(F)cc1 (stereo not drawn) [KBU2046, 3-(4-fluorophenyl)chroman-4-one]",MEK1/2 and ERK1/2 phosphorylation,MEK1/2 and ERK1/2,inhibition
same,tumor growth,PC3-M cells,did not significantly affect
same,improvement of femur bone density compared to control,PC3-luc cells,22±2.4%
same,inhibition of bone destruction in the mandible compared to control,PC3-luc cells,33±4.2%
same,increase of bone surface area compared with control (mean±SEM),"RAW 267.4 cells; 10 μmol/L KBU2046, RANKL, 6 days",28%±1.4%
same,bone surface area,"RAW 267.4 cells; plates pre-treated with ZA at 2, 10 and 20 μM, KBU2046 10 μM",significantly increased
